Laboratory results reported in US9409893B2, “Heteroaryl derivatives and uses thereof” (Jacobus Pharmaceutical Company, Inc., priority 2012, dated 2016).
pIC50: −log10 of the molar value. Structures can show the parent of a compound that is named as a salt. Where two headings read alike, the source gives them in different places. Marks after values point to notes of the source that are not given here.

Columns and labels:
[1] = system: Plasmodium berghei (KBG-173 strain); assay: Plasmodium berghei assay in vivo (modified Thompson Test) in CD-1 mice; settings: for Average Days Survival: 31 day experiment
Experimental: In vivo antimalarial activity was tested in male or female Charles River CD-1 mice that were 4-5 weeks old and weighed 20-25 g They were housed in groups of 3 or 4 in standard plastic cages with wire tops, Bed-o-Cob® bedding, 12 hr/day of light, and maintained at 75° F. They were fed a standard Ralston Purina mouse chow and the cages and bottles were changed twice a week. Test compounds were ground in a mortar and pestle and diluted with enough vehicle to give a volume of 10 mL/kg of mouse weight. The oral doses were prepared in 0.5% hydroxyethylcellulose (Union Carbide Corp. WP 4400)/0.1% Tween-80 (Fisher Scientific T164-500). The amount of drug was calculated on the free base weight. The mice were infected intraperitoneally on day 0 with 5×10^4 erythrocytes parasitized with Plasmodium berghei (KBG-173 strain) from a donor mouse having a parasitemia between 5-10%. On days 3, 4 and 5 the test compounds were administered bid, spaced 6 hr apart, by oral gavage to the mice. Activity was measured by survival, with full activity defined as all animals living at day 31. Partial activity is defined as days of increased survival versus the infected non-treated controls. This in vivo model is a modification of the Thompson Test. For further description see Ager, A. L, Jr. Rodent Malaria Models. In Handbook of Experimental Pharmacology: Antimalarial Drugs. 1. 68/1; Peters, W., Richards, W. H. G., Eds.: Springer-Verlag: Berlin, 1984, pp. 231-33.

[2] = system: P. falciparum strain D6; assay: [3H]-hypoxanthine growth inhibition assay, P. falciparum D6; assay type: cell-based; settings: Plasmodium falciparum
Experimental: (§1) The potential for antimalarial activity against Plasmodium falciparum was determined by measuring the incorporation of tritiated hypoxanthine into parasitized red blood cells.
(§2) Stock solutions of the test compounds and the reference drug chloroquine (CQ) (Sigma Chemicals C-6628, Lot #059H0919) were prepared in silanized glass vials with AquaSil™ (Pierce, USA) to minimize absorption of the compounds to glassware. All test compounds were dissolved in DMSO (Sigma Cat No. #D8418) to 1 mM concentration, whereas CQ was dissolved in 50% methanol at a concentration of 1.6 mg/ml (base). Stock solutions were stored at −20° C.
(§3) The P. falciparum laboratory adapted strains utilized in this project (Table 1) were in vitro cultured and routinely maintained in RPMI-1640-LPLF complete medium, which contained low concentrations of para-amino benzoic acid (0.0005 mg/L) and folic acid (0.01 mg/L).
(§4) The low concentration of folic acid in RPMI-1640-LPLF prevents inhibition of the compound if its activity targets the parasite's folate metabolic pathway. Parasites were cultured in human red blood cells (RBCs) in vitro at 37° C. in special gas mixture (5% O2, 5% CO2 and 90% N2) as described Trager and Jensen (1979 Science 193:673-675).
(§5) Base cultivation medium consisted of 10.4 g/L RPMI-1640-LPLF powder (Gibco BRL), 5.97 g/L HEPES buffer (MP Biomedicals, USA), 2.0 g/L D-glucose (BDH chemicals, Australia), 0.05 g/L hypoxanthine (Sigma, USA) and 40 mg/L gentamycin (Pfizer, Australia). The pH of the medium was adjusted to 6.9 and the solution was filtered using 0.2 μm pore size (AcroCap, Gelman Science, USA). Complete medium was prepared by adding sodium bicarbonate solution (final concentration, 0.21%) and drug-free heat-inactivated human plasma, pooled from various blood types, obtained from the Australian Red Cross Blood Service (Brisbane) (final concentration, 10%) to the base RPMI-1640-LPLF. For [^3H]-hypoxanthine inhibition growth assay, RPMI-1640-LPLF complete medium which lacked [^3H]-hypoxanthine ([^3H]-RPMI-1640-LPLF) was used to prevent uptake of hypoxanthine by parasites, as radioactive hypoxanthine uptake is measured as a surrogate marker of growth. All complete medium was used within three days of preparation. See DE (Para) SOP 002 for methodology.
(§6) Red blood cells (RBC) were required for P. falciparum parasites to proliferate in vitro. 0 (Rh+) type blood was obtained from the Australian Red Cross Blood Service. The RBC were washed twice in phosphate-buffered saline (PBS) and once in [^3H]-RPMI-1640-LPLF complete medium by centrifugation at 1,500×g for 5 min. Following the final wash, the haematocrit was measured as the percent of RBC to total culture volume. The haematocrit was adjusted to 50% by removing or adding [^3H]-RPMI-LPLF complete medium. See DE (Para) SOP 003 for methodology.
(§7) All P. falciparum strains were grown in RPMI-1640-LPLF complete medium at 4% haematocrit and 1% to 8% parasitaemia at 37° C. in sealed flasks in a gas mixture of 5% O2, 5% CO2 and 90% N2 (BOC Gases, Brisbane, Australia). For drug susceptibility assays cultures were routinely synchronized when the majority of parasites (>85%) were at early trophozoite (ring) stage. Synchronization involved removing the more mature erythrocytic parasite stages by lysis, resulting in the retention only of early trophozoite (ring) stages. Synchronization was performed by re-suspending the infected red blood cell (iRBC) pellet in 5 to 10 times its volume of 5% D-sorbitol (Bacto Laboratories Pty. Ltd., Australia) for 5 min (Lambros and Vanderberg, 1979 J Parasitol 65: 418-420). The mixture was centrifuged (1,500 rpm for 5 min) and the supernatant removed. The iRBC were washed twice using PBS buffer and once using [^3H]-RPMI-LPLF plain medium. Following synchronization, a new culture was prepared with an initial parasitaemia of 1% in RPMI-LPLF complete medium. See DE (Para) SOP 008 for methodology.

[3] = system: P. falciparum strain W2; assay: [3H]-hypoxanthine growth inhibition assay, P. falciparum W2; assay type: cell-based; settings: Plasmodium falciparum
Experimental: as §1, §2, §3, §4, §5, §6, §7

[4] = 4 mg/kg/day oral, bid on days 3, 4 and 5
[5] = 16 mg/kg/day oral, bid on days 3, 4 and 5
[6] = 64 mg/kg/day oral, bid on days 3, 4 and 5
[7] = Plasmodium berghei, po, 744 h, read-out: Number of mice alive at day 31
[8] = P. falciparum D6 (sensitive to chloroquine and pyrimethamine), [3H]-hypoxanthine incorporation, read-out: D6 IC50
[9] = P. falciparum W2 (resistant to chloroquine and pyrimethamine), [3H]-hypoxanthine incorporation, read-out: W2 IC50

Structure (SMILES)	pIC50 [2, 8]	pIC50 [3, 9]	pIC50 ([2]; D6, read-out: D6 IC50)	pIC50 ([3]; W2, read-out: W2 IC50)	also measured
CCN(CC)CCCC(C)Nc1ccnc2cc(Cl)ccc12 (stereo not shown) [Chloroquine, chloroquine, reference compound]			7.92	6.88	Average Days Survival [1, 4]: 10.3 days; Average Days Survival [1, 5]: >18.8 days; Average Days Survival [1, 6]: >18.6 days; Average Days Survival ([1]; 128 mg/kg/day oral, bid on days 3, 4 and 5): >21.3 days; responders at 4 mg/kg [1, 7]: 0%; responders at 16 mg/kg [1, 7]: 14.3%; responders at 64 mg/kg [1, 7]: 28.6%; responders at 128 mg/kg [1, 7]: 57.1%
CC(C)(C)NCc1cc(C(C)(C)C)cc(-c2cnc(Cl)c(Cl)c2)c1O.Cl [Example 41, 4-(tert-Butyl)-2-((tert-butylamino)methyl)-6-(5,6-dichloropyridin-3-yl)phenol hydrochloride]	8.00	8.52			Average Days Survival [1, 4]: >31* days; Average Days Survival ([1]; 8 mg/kg/day oral, bid on days 3, 4 and 5): >31* days; Average Days Survival [1, 5]: >31* days; Average Days Survival ([1]; 32 mg/kg/day oral, bid on days 3, 4 and 5): >31* days; Average Days Survival [1, 6]: >31* days; responders at 4 mg/kg ([1]; Plasmodium berghei, 744 h, 4 mg/kg/day oral, bid on days 3, 4 and 5, CD-1 mice infected with P. berghei, read-out: Number of mice alive at day 31 (converted)): 100%; responders at 8 mg/kg ([1]; Plasmodium berghei, 744 h, 8 mg/kg/day oral, bid on days 3, 4 and 5, CD-1 mice infected with P. berghei, read-out: Number of mice alive at day 31 (converted)): 100%; responders at 16 mg/kg ([1]; Plasmodium berghei, 744 h, 16 mg/kg/day oral, bid on days 3, 4 and 5, CD-1 mice infected with P. berghei, read-out: Number of mice alive at day 31 (converted)): 100%; responders at 32 mg/kg ([1]; Plasmodium berghei, 744 h, 32 mg/kg/day oral, bid on days 3, 4 and 5, CD-1 mice infected with P. berghei, read-out: Number of mice alive at day 31 (converted)): 100%; responders at 64 mg/kg ([1]; Plasmodium berghei, 744 h, 64 mg/kg/day oral, bid on days 3, 4 and 5, CD-1 mice infected with P. berghei, read-out: Number of mice alive at day 31 (converted)): 100%
CCN(CC)CCCNCc1cc(C(C)(C)C)cc(-c2ccc(C(F)(F)F)nc2)c1O [Example 61, 4-(tert-Butyl)-2-(((3-(diethylamino)propyl)amino)methyl)-6-(6-(trifluoromethyl)pyridin-3-yl)phenol dihydrochloride]			7.36	7.49	
CC(C)(C)c1cc(CNCCCN)c(O)c(-c2ccc(C(F)(F)F)nc2)c1 [Example 62, 2-(((3-Aminopropyl)amino)methyl)-4-(tert-butyl)-6-(6-(trifluoromethyl)pyridin-3-yl)phenol dihydrochloride]			6.88	6.65	
CCN(CC)CCNCc1cc(C(C)(C)C)cc(-c2ccc(C(F)(F)F)nc2)c1O [Example 63, 4-(tert-Butyl)-2-(((2-(diethylamino)ethyl)amino)methyl)-6-(6-(trifluoromethyl)pyridin-3-yl)phenol dihydrochloride]			8.05	8.15	
CC(C)(C)c1cc(CN)c(O)c(-c2ccc(C(F)(F)F)nc2)c1 [Example 64, 2-(Aminomethyl)-4-(tert-butyl)-6-(6-(trifluoromethyl)pyridin-3-yl)phenol hydrochloride]	6.67	6.69			
CC(CN)NCc1cc(C(C)(C)C)cc(-c2ccc(C(F)(F)F)nc2)c1O (stereo not shown) [Example 65, 2-(((1-Aminopropan-2-yl)amino)methyl)-4-(tert-butyl)-6-(6-(trifluoromethyl)pyridin-3-yl)phenol dihydrochloride]			6.40	6.68	
CC(C)(C)NCc1cc(-c2cccc(F)c2)cc(-c2ccc(C(F)(F)F)nc2)c1O [Example 67, 3-((tert-Butylamino)methyl)-3′-fluoro-5-(6-(trifluoromethyl)pyridin-3-yl)-[1,1′-biphenyl]-4-ol hydrochloride]	7.00	7.28			

More lines, main results first:

pIC50 [2, 8]	pIC50 [3, 9]	Structure (SMILES)	pIC50 ([2]; D6, read-out: D6 IC50)	pIC50 ([3]; W2, read-out: W2 IC50)	also measured
6.66	6.90	CC(C)(C)NCc1cc(F)cc(-c2ccc(C(F)(F)F)nc2)c1O [Example 68, 2-((tert-Butylamino)methyl)-4-fluoro-6-(6-(trifluoromethyl)pyridin-3-yl)phenol hydrochloride]			
6.62	6.89	CC(C)(C)NCc1cc(Cl)cc(-c2ccc(C(F)(F)F)nc2)c1O [Example 69, 2-((tert-Butylamino)methyl)-4-chloro-6-(6-(trifluoromethyl)pyridin-3-yl)phenol hydrochloride]			
4.03	4.30	CC(C)(C)NCc1cc(C#N)cc(-c2ccc(C(F)(F)F)nc2)c1O [Example 71, 3-((tert-Butylamino)methyl)-4-hydroxy-5-(6-(trifluoromethyl)pyridin-3-yl)benzonitrile hydrochloride]			
3.90	4.09	CC(C)(C)NCc1cc(S(C)(=O)=O)cc(-c2ccc(C(F)(F)F)nc2)c1O [Example 72, 2-((tert-Butylamino)methyl)-4-(methylsulfonyl)-6-(6-(trifluoromethyl)pyridin-3-yl)phenol hydrochloride]			
5.73	5.56	CC(NC(C)(C)C)c1cc(C(C)(C)C)cc(-c2ccc(C(F)(F)F)nc2)c1O (stereo not shown) [Example 73, 4-(tert-Butyl)-2-(1-(tert-butylamino)ethyl)-6-(6-(trifluoromethyl)pyridin-3-yl)phenol hydrochloride]			
7.27	7.64	CC(C)(C)NCc1cc(-c2ccc(Cl)cc2)nc(-c2ccc(C(F)(F)F)nc2)c1O [Example 74, 4-((tert-Butylamino)methyl)-6-(4-chlorophenyl)-6′-(trifluoromethyl)-[2,3′-bipyridin]-3-ol 1.1hydrochloride]			
